From patent US9050347B2, “1,2,4-oxadiazole derivatives as drugs modulating the GLP-1 peptide receptor” (VIVIABIOTECH, S.L., priority 2011, dated 2015) come the findings set out here.

Assay [1] relates to rat insulinoma cells (INS1E cells). Put plainly: In vitro insulin secretion assay in INS1E cells. The following applies: for enhancement of glucose-dependent insulin release caused by GLP-1 / direct activation of glucose-activated insulin secretion: rat insulinoma cells; for enhancement of glucose-dependent insulin release caused by GLP-1: GLP-1 10 nM, FIG. 3; for direct activation of glucose-activated insulin secretion: compound alone, FIG. 2. In kind it is cell-based. On the procedure: The insulin secretion studies were performed in INS1E cells cultured in RPMI 1640 medium (Invitrogen, Switzerland) containing 11 mM glucose. The culture medium was supplemented with 10 mM Hepes (pH 7.3), 10% (v/v) heat-inactivated fetal bovine serum (Brunschwig AG, Switzerland), […] b-mercaptoethanol, 1 mM sodium pyruvate, […] penicillin and […] streptomycin (INS medium). Static secretion studies were performed in culture plates with a diameter of 2.5 cm in which the cells were grown until reaching confluence criteria. The in vitro studies allowed identifying compounds with intrinsic capacity to release insulin (FIG. 2) or which enhance the incretin actions of GLP-1 (FIGS. 3, 4 and 5).

Assay [2] in a line: Parenteral glucose overload assay. It counts as in vivo, male Wistar rats. As to the method:
All the in vivo experiments were performed using male Wistar rats with a weight of 200-450 g. The animals were housed in individual cages in a room with controlled temperature (23° C.) and humidity (50%) with a 12/12 light and dark cycle. The animals had water and food ad libitum except in specific experimental procedures. The animals were handled once a day during the two days before the experimental sessions. All the products were dissolved in a mixture of 5% DMSO, 5% Tween 60/90% saline and intraperitoneally administered. The vehicle was 0.9% sterile saline for the parenteral glucose overload.
The parenteral glucose overload assay was performed in male Wistar rats (Harlan, Barcelona) deprived of food for 18 hours. The animals received an injection of sterile saline containing glucose which was administered at the dose of 2 gr/kg in a volume of 2 ml/kg. The plasma glucose levels were measured by means of glucometers in tail blood using reactive strips of glucose oxidase, at times 0, 5, 10, 15, 30, 45, 60 and 120 minutes after the administration of glucose. The animals received an injection of the drugs under study 15 minutes before the administration of intraperitoneal glucose. After measuring the glucose, an analysis under the curve for compound and dose was performed. This analysis allows evaluating the time intensity of the hyperglycemia. […]

Molecules are shown by their SMILES.

As for `O=C(CCc1ccccc1)[C@@H]1CCCN(Cc2nc(-c3ccc(C(F)(F)F)cc3)no2)C1` [Compound C1, 3-phenyl-1-[(3R)-1-[[3-[4-(trifluoromethyl)phenyl]-1,2,4-oxadiazol-5-yl]methyl]piperidin-3-yl]propan-1-one], in assay [1], the “enhancement of glucose-dependent insulin release caused by GLP-1” value (shortened to “enhancement”) is “enhance” and the “direct activation of glucose-activated insulin secretion” value (“direct activation” for short) is listed as “direct activators”.
As for `CC(=O)NCC[C@@H]1CCCCN1Cc1nc(-c2ccc(C(F)(F)F)cc2)no1` [Compound C3, N-[2-[(2S)-1-[[3-[4-(trifluoromethyl)phenyl]-1,2,4-oxadiazol-5-yl]methyl]piperidin-2-yl]ethyl]acetamide], in assay [1], the “enhancement” value is listed as “enhance”.
With `NC(=O)C1CCN(Cc2nc(-c3ccc(C(F)(F)F)cc3)no2)CC1` [Compound C4, 1[[3-[4-(trifluoromethyl)phenyl]-1,2,4-oxadiazol-5-yl]methyl]piperidin-4-carboxamide], in assay [1], the “enhancement” value is “enhance” and the “direct activation” value is “direct activators”.
Taken in the same sequence, the figures for `FC(F)(F)c1ccc(-c2noc(CN3CCCC[C@H]3CCc3ccccn3)n2)cc1` [Compound C5, 5-[[(2S)-2-(2-pyridin-2-ylethyl)piperidin-1-yl]methyl]-3-[4-(trifluoromethyl)phenyl]-1,2,4-oxadiazole] were “enhance” and “direct activators”.
On to `FC(F)(F)c1ccc(-c2noc(CN3CCCC(CN4CCOCC4)C3)n2)cc1` (stereo not shown) [Compound C6, 4-[[1[[3-[4-(trifluoromethyl)phenyl]-1,2,4-oxadiazol-5-yl]methyl]piperidin-3-yl]methyl]morpholine], for which, in assay [1] (insulinoma cells, 0.2 nM GLP-1, increasing compound concentration, FIG. 5), the “allosteric modulation of insulin secretion stimulated by a fixed concentration of GLP-1” value is “enhances in a dose-dependent manner”. For the same compound, the “allosteric modulation of insulin release stimulated by increasing doses of GLP-1” value in assay [1] (insulinoma cells, compound at 0.1 nM, FIG. 4) is “enhances”. Also, in assay [1], the “enhancement” value is on record as “enhance” and the “direct activation” value is “direct activators”. In addition, the “physiological response (glycemia) in the parenteral glucose overload test” value in assay [2] (rats deprived of food for 18 hours, glucose 2 gr/kg, compound 15 minutes before, FIG. 6) is “improves the physiological response”. Besides, the “intensity of the hyperglycemia (area under the curve of the glycemia)” value in assay [2] (rats, parenteral glucose overload test, several doses, FIG. 7) is on record as “induces in a dose-dependent manner a reduction of the intensity of the hyperglycemia”.
